Experimental data as given in the kinase profiling compilation of Christmann-Franck et al. (2016).
One block for each compound: values may come before it.

Assays:
[1] = target: AAK1 (human) (UniProt Q2M2I8); test: KINOMEscan competition binding; conditions: compound 10.0 µM
[2] = target: ACVR2A (human) (UniProt P27037); test: KINOMEscan competition binding; conditions: compound 10.0 µM
[3] = target: ACVR2B (human) (UniProt Q13705); test: KINOMEscan competition binding; conditions: compound 10.0 µM
[4] = target: BMP2K (human) (UniProt Q9NSY1); test: KINOMEscan competition binding; conditions: compound 10.0 µM
[5] = target: CAMKK1 (human) (UniProt Q8N5S9); test: KINOMEscan competition binding; conditions: compound 10.0 µM
[6] = target: CDK7 (human) (UniProt P50613); test: KINOMEscan competition binding; conditions: compound 10.0 µM
[7] = target: CLK1 (human) (UniProt P49759); test: KINOMEscan competition binding; conditions: compound 10.0 µM
[8] = target: CLK2 (human) (UniProt P49760); test: KINOMEscan competition binding; conditions: compound 10.0 µM
[9] = target: CLK4 (human) (UniProt Q9HAZ1); test: KINOMEscan competition binding; conditions: compound 10.0 µM
[10] = target: CSNK2A2 (human) (UniProt P19784); test: KINOMEscan competition binding; conditions: compound 10.0 µM
[11] = target: DAPK1 (human) (UniProt P53355); test: KINOMEscan competition binding; conditions: compound 10.0 µM
[12] = target: DAPK2 (human) (UniProt Q9UIK4); test: KINOMEscan competition binding; conditions: compound 10.0 µM
[13] = system: EIF2AK4 KD2 (human), Q9P2K8 [S808G]; test: KINOMEscan competition binding; conditions: compound 10.0 µM
[14] = system: FLT3 (human), P36888 [D835H]; test: KINOMEscan competition binding; conditions: compound 10.0 µM
[15] = system: FLT3 (human), P36888 [D835Y]; test: KINOMEscan competition binding; conditions: compound 10.0 µM
[16] = system: FLT3 (human), P36888 [ITD]; test: KINOMEscan competition binding; conditions: compound 10.0 µM
[17] = system: FLT3 (human), P36888 [N841I]; test: KINOMEscan competition binding; conditions: compound 10.0 µM
[18] = target: GAK (human) (UniProt O14976); test: KINOMEscan competition binding; conditions: for kinase still bound, per cent of control: compound 10.0 µM
[19] = target: GSK3A (human) (UniProt P49840); test: KINOMEscan competition binding; conditions: compound 10.0 µM
[20] = target: HIPK1 (human) (UniProt Q86Z02); test: KINOMEscan competition binding; conditions: compound 10.0 µM
[21] = target: IRAK3 (human) (UniProt Q9Y616); test: KINOMEscan competition binding; conditions: compound 10.0 µM
[22] = target: JAK1 JH2 pseudokinase (human) (UniProt P23458); test: KINOMEscan competition binding; conditions: compound 10.0 µM
[23] = target: MAP2K4 (human) (UniProt P45985); test: KINOMEscan competition binding; conditions: compound 10.0 µM
[24] = target: MAP3K7 (human) (UniProt O43318); test: KINOMEscan competition binding; conditions: compound 10.0 µM
[25] = target: MAP4K2 (human) (UniProt Q12851); test: KINOMEscan competition binding; conditions: compound 10.0 µM
[26] = target: MINK1 (human) (UniProt Q8N4C8); test: KINOMEscan competition binding; conditions: compound 10.0 µM
[27] = target: MYLK (human) (UniProt Q15746); test: KINOMEscan competition binding; conditions: compound 10.0 µM
[28] = target: MYLK4 (human) (UniProt Q86YV6); test: KINOMEscan competition binding; conditions: compound 10.0 µM
[29] = target: PIM1 (human) (UniProt P11309); test: KINOMEscan competition binding; conditions: compound 10.0 µM
[30] = target: PIM2 (human) (UniProt Q9P1W9); test: KINOMEscan competition binding; conditions: compound 10.0 µM
[31] = target: PIM3 (human) (UniProt Q86V86); test: KINOMEscan competition binding; conditions: compound 10.0 µM
[32] = target: PIP4K2B (human) (UniProt P78356); test: KINOMEscan competition binding; conditions: compound 10.0 µM
[33] = target: PIP5K1A (human) (UniProt Q99755); test: KINOMEscan competition binding; conditions: compound 10.0 µM
[34] = target: PLK3 (human) (UniProt Q9H4B4); test: KINOMEscan competition binding; conditions: compound 10.0 µM
[35] = system: RET (human), P07949 [V804M]; test: KINOMEscan competition binding; conditions: compound 10.0 µM
[36] = target: RIOK1 (human) (UniProt Q9BRS2); test: KINOMEscan competition binding; conditions: compound 10.0 µM
[37] = target: RIOK2 (human) (UniProt Q9BVS4); test: KINOMEscan competition binding; conditions: compound 10.0 µM
[38] = target: RIPK2 (human) (UniProt O43353); test: KINOMEscan competition binding; conditions: compound 10.0 µM
[39] = target: SRPK3 (human) (UniProt Q9UPE1); test: KINOMEscan competition binding; conditions: compound 10.0 µM
[40] = target: STK17A (human) (UniProt Q9UEE5); test: KINOMEscan competition binding; conditions: compound 10.0 µM
[41] = target: STK17B (human) (UniProt O94768); test: KINOMEscan competition binding; conditions: compound 10.0 µM
[42] = target: TAOK1 (human) (UniProt Q7L7X3); test: KINOMEscan competition binding; conditions: compound 10.0 µM
[43] = target: TGFBR2 (human) (UniProt P37173); test: KINOMEscan competition binding; conditions: compound 10.0 µM
[44] = target: TTK (human) (UniProt P33981); test: KINOMEscan competition binding; conditions: compound 10.0 µM
[45] = target: TYK2 JH2 pseudokinase (human) (UniProt P29597); test: KINOMEscan competition binding; conditions: compound 10.0 µM
[46] = target: PIM1 (human) (UniProt P11309); test: SelectScreen, TR FRET
[47] = target: PIM2 (human) (UniProt Q9P1W9); test: SelectScreen, TR FRET
[48] = system: ABL1 (human), P00519 [F317I]; test: KINOMEscan competition binding; conditions: compound 10.0 µM
[49] = system: ABL1 (human), P00519 [F317L]; test: KINOMEscan competition binding; conditions: compound 10.0 µM
[50] = target: CSF1R (human) (UniProt P07333); test: KINOMEscan competition binding
[51] = target: DCLK1 (human) (UniProt O15075); test: KINOMEscan competition binding
[52] = target: DCLK2 (human) (UniProt Q8N568); test: KINOMEscan competition binding
[53] = target: FGFR4 (human) (UniProt P22455); test: KINOMEscan competition binding; conditions: compound 10.0 µM
[54] = target: FRK (human) (UniProt P42685); test: KINOMEscan competition binding
[55] = target: KIT (human) (UniProt P10721); test: KINOMEscan competition binding; conditions: compound 10.0 µM
[56] = system: KIT (human), P10721 [V559D]; test: KINOMEscan competition binding; conditions: compound 10.0 µM
[57] = target: MAPK7 (human) (UniProt Q13164); test: KINOMEscan competition binding
[58] = target: MKNK2 (human) (UniProt Q9HBH9); test: KINOMEscan competition binding; conditions: compound 10.0 µM
[59] = target: NUAK1 (human) (UniProt O60285); test: KINOMEscan competition binding; conditions: compound 10.0 µM
[60] = target: PDGFRB (human) (UniProt P09619); test: KINOMEscan competition binding; conditions: compound 10.0 µM
[61] = target: PLK4 (human) (UniProt O00444); test: KINOMEscan competition binding; conditions: compound 10.0 µM
[62] = target: PRKD1 (human) (UniProt Q15139); test: KINOMEscan competition binding; conditions: compound 10.0 µM
[63] = target: PRKD2 (human) (UniProt Q9BZL6); test: KINOMEscan competition binding; conditions: compound 10.0 µM
[64] = target: PRKD3 (human) (UniProt O94806); test: KINOMEscan competition binding; conditions: compound 10.0 µM
[65] = target: PTK6 (human) (UniProt Q13882); test: KINOMEscan competition binding
[66] = target: ROS1 (human) (UniProt P08922); test: KINOMEscan competition binding; conditions: compound 10.0 µM
[67] = target: RPS6KA1 KD2 (human) (UniProt Q15418); test: KINOMEscan competition binding; conditions: compound 10.0 µM
[68] = target: RPS6KA6 KD2 (human) (UniProt Q9UK32); test: KINOMEscan competition binding; conditions: compound 10.0 µM
[69] = target: SGK110 (human) (UniProt P0C264); test: KINOMEscan competition binding; conditions: compound 10.0 µM
[70] = target: SRMS (human) (UniProt Q9H3Y6); test: KINOMEscan competition binding; conditions: compound 10.0 µM
[71] = target: TNK1 (human) (UniProt Q13470); test: KINOMEscan competition binding
[72] = target: TNK2 (human) (UniProt Q07912); test: KINOMEscan competition binding; conditions: compound 10.0 µM

GAK (human), sequence (O14976 whole entry, looked up): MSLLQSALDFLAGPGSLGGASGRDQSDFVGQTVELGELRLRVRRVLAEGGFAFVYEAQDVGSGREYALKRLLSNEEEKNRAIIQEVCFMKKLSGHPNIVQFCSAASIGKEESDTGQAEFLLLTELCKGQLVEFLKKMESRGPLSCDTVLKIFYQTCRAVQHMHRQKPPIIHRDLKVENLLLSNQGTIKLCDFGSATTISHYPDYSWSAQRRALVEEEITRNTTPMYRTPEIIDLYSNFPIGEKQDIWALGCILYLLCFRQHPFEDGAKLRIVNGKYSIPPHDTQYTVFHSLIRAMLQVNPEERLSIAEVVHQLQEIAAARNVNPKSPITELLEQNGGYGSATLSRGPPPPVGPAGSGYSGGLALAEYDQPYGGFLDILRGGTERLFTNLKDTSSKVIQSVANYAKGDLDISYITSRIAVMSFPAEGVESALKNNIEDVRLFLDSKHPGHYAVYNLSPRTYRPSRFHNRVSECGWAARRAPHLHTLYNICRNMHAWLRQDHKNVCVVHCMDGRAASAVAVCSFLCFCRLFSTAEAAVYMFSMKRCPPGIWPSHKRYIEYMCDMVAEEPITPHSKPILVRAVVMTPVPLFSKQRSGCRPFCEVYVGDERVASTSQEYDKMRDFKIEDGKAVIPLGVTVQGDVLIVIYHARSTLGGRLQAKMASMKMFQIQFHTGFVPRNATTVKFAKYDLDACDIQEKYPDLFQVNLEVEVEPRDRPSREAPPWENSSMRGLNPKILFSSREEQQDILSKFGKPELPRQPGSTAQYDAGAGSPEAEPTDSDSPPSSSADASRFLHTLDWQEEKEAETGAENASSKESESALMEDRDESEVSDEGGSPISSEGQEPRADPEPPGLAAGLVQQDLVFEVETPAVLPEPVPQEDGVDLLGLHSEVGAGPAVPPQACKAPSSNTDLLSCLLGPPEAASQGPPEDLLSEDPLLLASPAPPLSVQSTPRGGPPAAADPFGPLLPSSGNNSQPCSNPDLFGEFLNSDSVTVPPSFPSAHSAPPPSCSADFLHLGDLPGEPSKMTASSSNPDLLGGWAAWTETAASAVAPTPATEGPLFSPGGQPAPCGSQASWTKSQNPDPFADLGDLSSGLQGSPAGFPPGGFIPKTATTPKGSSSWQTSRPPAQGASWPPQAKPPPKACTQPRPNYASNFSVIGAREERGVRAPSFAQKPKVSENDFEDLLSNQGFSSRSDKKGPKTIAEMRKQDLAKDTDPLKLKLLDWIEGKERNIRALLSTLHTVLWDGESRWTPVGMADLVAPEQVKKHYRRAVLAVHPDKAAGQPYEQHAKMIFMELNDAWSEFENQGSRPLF
MYLK4 (human), sequence (Q86YV6 whole entry, looked up): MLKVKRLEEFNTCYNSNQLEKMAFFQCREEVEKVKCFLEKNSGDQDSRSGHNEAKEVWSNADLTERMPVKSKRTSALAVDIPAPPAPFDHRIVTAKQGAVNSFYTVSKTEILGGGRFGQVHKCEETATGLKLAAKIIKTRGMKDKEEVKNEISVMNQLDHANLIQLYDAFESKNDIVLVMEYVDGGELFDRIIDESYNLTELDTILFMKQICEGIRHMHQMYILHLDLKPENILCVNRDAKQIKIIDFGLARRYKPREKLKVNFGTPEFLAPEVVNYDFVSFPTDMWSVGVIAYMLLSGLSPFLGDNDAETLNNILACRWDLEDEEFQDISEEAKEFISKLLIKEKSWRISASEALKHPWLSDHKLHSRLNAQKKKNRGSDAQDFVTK
DCLK2 (human), sequence (Q8N568 whole entry, looked up): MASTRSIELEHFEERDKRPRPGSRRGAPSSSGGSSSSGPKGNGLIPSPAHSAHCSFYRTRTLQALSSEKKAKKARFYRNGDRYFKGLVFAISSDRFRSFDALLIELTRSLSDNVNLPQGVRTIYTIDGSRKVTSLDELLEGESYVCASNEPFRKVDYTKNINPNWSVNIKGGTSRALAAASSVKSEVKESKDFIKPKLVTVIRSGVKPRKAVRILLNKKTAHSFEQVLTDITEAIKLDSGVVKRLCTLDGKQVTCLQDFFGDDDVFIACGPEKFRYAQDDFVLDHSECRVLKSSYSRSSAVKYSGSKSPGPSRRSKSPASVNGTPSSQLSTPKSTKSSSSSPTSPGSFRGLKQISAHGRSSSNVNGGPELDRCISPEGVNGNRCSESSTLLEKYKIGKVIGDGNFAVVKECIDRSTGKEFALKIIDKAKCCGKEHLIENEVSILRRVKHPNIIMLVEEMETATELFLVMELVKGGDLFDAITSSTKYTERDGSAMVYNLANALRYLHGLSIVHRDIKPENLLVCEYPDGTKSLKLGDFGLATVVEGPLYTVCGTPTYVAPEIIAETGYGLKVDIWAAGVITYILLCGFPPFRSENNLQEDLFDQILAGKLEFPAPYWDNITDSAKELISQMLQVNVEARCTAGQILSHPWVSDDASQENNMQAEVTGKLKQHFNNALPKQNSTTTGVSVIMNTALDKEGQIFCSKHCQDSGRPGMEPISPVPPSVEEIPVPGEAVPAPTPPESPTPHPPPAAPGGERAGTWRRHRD
FRK (human), sequence (P42685 whole entry, looked up): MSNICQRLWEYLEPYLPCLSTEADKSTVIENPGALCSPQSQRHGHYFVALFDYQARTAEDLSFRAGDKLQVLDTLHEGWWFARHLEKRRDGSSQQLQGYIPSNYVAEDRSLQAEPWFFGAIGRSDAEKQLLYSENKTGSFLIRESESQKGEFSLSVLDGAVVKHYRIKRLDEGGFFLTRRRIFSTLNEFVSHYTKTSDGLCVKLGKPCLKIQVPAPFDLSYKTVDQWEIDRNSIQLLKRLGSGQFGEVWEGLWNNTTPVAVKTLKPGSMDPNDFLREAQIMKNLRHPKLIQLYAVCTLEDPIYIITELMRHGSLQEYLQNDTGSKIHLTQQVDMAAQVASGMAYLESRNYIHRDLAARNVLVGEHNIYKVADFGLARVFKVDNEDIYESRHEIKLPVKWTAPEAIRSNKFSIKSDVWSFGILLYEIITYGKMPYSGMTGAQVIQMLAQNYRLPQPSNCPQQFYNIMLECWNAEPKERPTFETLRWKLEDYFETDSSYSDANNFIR
CAMKK1 (human), sequence (Q8N5S9 whole entry, looked up): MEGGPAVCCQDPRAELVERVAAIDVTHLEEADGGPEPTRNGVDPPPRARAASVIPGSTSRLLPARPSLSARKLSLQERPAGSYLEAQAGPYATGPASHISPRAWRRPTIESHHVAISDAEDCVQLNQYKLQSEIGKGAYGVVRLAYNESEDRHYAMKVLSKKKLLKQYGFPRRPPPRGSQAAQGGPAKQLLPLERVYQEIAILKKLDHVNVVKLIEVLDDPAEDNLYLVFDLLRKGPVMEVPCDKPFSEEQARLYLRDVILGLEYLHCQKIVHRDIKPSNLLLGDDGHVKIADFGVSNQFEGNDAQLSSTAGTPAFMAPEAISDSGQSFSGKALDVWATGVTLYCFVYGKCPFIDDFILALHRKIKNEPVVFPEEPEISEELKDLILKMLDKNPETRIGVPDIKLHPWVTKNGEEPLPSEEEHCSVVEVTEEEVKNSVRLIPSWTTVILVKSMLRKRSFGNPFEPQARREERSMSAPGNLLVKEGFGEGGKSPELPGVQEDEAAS
PTK6 (human), sequence (Q13882 whole entry, looked up): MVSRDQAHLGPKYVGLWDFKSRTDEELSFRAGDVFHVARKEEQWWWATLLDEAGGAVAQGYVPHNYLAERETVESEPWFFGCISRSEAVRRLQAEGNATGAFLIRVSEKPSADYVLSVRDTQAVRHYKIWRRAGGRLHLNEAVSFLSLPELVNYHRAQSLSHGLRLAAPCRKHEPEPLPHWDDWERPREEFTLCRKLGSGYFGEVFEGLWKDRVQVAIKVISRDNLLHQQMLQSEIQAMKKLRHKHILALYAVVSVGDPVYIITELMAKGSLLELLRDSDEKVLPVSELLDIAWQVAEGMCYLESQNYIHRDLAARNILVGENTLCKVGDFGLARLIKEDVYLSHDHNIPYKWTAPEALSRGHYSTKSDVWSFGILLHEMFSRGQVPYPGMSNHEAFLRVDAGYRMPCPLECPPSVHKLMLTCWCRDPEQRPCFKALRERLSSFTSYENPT
MAPK7 (human), sequence (Q13164 whole entry, looked up): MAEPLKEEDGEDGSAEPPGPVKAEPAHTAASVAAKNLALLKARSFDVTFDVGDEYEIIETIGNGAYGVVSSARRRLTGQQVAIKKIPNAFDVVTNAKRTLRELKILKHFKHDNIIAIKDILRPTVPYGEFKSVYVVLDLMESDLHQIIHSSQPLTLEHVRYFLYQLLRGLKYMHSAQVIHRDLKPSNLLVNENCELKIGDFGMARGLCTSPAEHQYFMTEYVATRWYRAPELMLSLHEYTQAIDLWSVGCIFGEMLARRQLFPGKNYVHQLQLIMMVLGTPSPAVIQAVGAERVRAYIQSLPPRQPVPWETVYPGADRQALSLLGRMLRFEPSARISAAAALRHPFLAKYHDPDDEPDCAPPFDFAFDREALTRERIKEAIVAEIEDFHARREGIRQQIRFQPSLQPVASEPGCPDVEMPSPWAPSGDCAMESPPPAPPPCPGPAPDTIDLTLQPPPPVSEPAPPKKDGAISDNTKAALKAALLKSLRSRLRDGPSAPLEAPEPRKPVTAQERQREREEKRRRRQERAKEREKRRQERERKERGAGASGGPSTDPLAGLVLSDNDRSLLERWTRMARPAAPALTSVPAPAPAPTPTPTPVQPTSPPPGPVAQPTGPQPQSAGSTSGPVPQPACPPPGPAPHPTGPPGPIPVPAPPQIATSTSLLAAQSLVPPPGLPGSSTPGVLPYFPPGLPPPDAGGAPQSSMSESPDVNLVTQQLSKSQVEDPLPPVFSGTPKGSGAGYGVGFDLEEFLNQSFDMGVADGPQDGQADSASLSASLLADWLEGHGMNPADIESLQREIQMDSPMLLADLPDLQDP

kinase still bound, per cent of control [1]: 6.3%
kinase still bound, per cent of control [2]: 34%
kinase still bound, per cent of control [3]: 21%
kinase still bound, per cent of control [4]: 8%
kinase still bound, per cent of control [5]: 27%
kinase still bound, per cent of control [6]: 5.8%
kinase still bound, per cent of control [7]: 15%
kinase still bound, per cent of control [8]: 9.8%
kinase still bound, per cent of control [9]: 20%
kinase still bound, per cent of control [10]: 5.5%
kinase still bound, per cent of control [11]: 22%
kinase still bound, per cent of control [12]: 30%
kinase still bound, per cent of control [13]: 26%
kinase still bound, per cent of control [14]: 18%
kinase still bound, per cent of control [15]: 8.4%
kinase still bound, per cent of control [16]: 22%
kinase still bound, per cent of control [17]: 29%
kinase still bound, per cent of control [18]: 2.6%
kinase still bound, per cent of control [19]: 17%
kinase still bound, per cent of control [20]: 0.1%
kinase still bound, per cent of control [21]: 24%
kinase still bound, per cent of control [22]: 20%
kinase still bound, per cent of control [23]: 33%
kinase still bound, per cent of control [24]: 12%
kinase still bound, per cent of control [25]: 20%
kinase still bound, per cent of control [26]: 16%
kinase still bound, per cent of control [27]: 24%
kinase still bound, per cent of control [28]: 13%
kinase still bound, per cent of control [29]: 8.3%
kinase still bound, per cent of control [30]: 1.4%
kinase still bound, per cent of control [31]: 3.2%
kinase still bound, per cent of control [32]: 20%
kinase still bound, per cent of control [33]: 19%
kinase still bound, per cent of control [34]: 29%
kinase still bound, per cent of control [35]: 10%
kinase still bound, per cent of control [36]: 15%
kinase still bound, per cent of control [37]: 9.2%
kinase still bound, per cent of control [38]: 25%
kinase still bound, per cent of control [39]: 22%
kinase still bound, per cent of control [40]: 0.55%
kinase still bound, per cent of control [41]: 2.3%
kinase still bound, per cent of control [42]: 34%
kinase still bound, per cent of control [43]: 9.2%
kinase still bound, per cent of control [44]: 25%
kinase still bound, per cent of control [45]: 1.1%
IC50 [46]: > 1110 nM
IC50 [47]: 504 nM
Structure (SMILES): N=C1NC(=O)/C(=C/c2ccc(-c3cnc4ccccc4c3)o2)S1

kinase still bound, per cent of control [48]: 3.9%
kinase still bound, per cent of control [49]: 8%
kinase still bound, per cent of control [5]: 28%
Kd [50]: 330 nM
kinase still bound, per cent of control ([50]; compound 10.0 µM): 1%
Kd [51]: 280 nM
kinase still bound, per cent of control ([51]; compound 10.0 µM): 0.9%
Kd [52]: 690 nM
kinase still bound, per cent of control ([52]; compound 10.0 µM): 1.4%
kinase still bound, per cent of control [53]: 34%
Kd [54]: 96 nM
kinase still bound, per cent of control ([54]; compound 10.0 µM): 0.8%
Kd [18]: 270 nM
kinase still bound, per cent of control [18]: 3.8%
kinase still bound, per cent of control [55]: 12%
kinase still bound, per cent of control [56]: 22%
Kd [57]: 670 nM
kinase still bound, per cent of control ([57]; compound 10.0 µM): 0.5%
kinase still bound, per cent of control [58]: 27%
kinase still bound, per cent of control [28]: 2.2%
kinase still bound, per cent of control [59]: 29%
kinase still bound, per cent of control [60]: 29%
kinase still bound, per cent of control [61]: 8.2%
kinase still bound, per cent of control [62]: 21%
kinase still bound, per cent of control [63]: 22%
kinase still bound, per cent of control [64]: 32%
Kd [65]: 37 nM
kinase still bound, per cent of control ([65]; compound 10.0 µM): 0.15%
kinase still bound, per cent of control [38]: 24%
kinase still bound, per cent of control [66]: 17%
kinase still bound, per cent of control [67]: 21%
kinase still bound, per cent of control [68]: 14%
kinase still bound, per cent of control [69]: 31%
kinase still bound, per cent of control [70]: 18%
Kd [71]: 110 nM
kinase still bound, per cent of control ([71]; compound 10.0 µM): 2.4%
kinase still bound, per cent of control [72]: 0.3%
Structure (SMILES): COc1cc(N2CCN(C)CC2)ccc1Nc1ncc2c(n1)N(C)c1ccccc1C(=O)N2
